Experimental data published in article PMC4275233, “Evaluation of the Cardiotoxicity of Mitragynine and Its Analogues Using Human Induced Pluripotent Stem Cell-Derived Cardiomyocytes” (PLoS ONE, 2014).

Assays:
hERG (Kv11.1) [1] = biological target: T1, hERG (Kv11.1) (Homo sapiens, UniProt Q12809); test: whole-cell patch clamp of I Kr tail current in hiPSC-CMs; format: cell-based
T1 construct: gene KCNH2

hERG (Kv11.1) [2] = biological target: T1, hERG (Kv11.1); test: whole-cell patch clamp: hERG-HEK293 cells ([…]) and I Kr in hiPSC-CMs (IC50); format: cell-based

T1 sequence (Q12809 whole entry): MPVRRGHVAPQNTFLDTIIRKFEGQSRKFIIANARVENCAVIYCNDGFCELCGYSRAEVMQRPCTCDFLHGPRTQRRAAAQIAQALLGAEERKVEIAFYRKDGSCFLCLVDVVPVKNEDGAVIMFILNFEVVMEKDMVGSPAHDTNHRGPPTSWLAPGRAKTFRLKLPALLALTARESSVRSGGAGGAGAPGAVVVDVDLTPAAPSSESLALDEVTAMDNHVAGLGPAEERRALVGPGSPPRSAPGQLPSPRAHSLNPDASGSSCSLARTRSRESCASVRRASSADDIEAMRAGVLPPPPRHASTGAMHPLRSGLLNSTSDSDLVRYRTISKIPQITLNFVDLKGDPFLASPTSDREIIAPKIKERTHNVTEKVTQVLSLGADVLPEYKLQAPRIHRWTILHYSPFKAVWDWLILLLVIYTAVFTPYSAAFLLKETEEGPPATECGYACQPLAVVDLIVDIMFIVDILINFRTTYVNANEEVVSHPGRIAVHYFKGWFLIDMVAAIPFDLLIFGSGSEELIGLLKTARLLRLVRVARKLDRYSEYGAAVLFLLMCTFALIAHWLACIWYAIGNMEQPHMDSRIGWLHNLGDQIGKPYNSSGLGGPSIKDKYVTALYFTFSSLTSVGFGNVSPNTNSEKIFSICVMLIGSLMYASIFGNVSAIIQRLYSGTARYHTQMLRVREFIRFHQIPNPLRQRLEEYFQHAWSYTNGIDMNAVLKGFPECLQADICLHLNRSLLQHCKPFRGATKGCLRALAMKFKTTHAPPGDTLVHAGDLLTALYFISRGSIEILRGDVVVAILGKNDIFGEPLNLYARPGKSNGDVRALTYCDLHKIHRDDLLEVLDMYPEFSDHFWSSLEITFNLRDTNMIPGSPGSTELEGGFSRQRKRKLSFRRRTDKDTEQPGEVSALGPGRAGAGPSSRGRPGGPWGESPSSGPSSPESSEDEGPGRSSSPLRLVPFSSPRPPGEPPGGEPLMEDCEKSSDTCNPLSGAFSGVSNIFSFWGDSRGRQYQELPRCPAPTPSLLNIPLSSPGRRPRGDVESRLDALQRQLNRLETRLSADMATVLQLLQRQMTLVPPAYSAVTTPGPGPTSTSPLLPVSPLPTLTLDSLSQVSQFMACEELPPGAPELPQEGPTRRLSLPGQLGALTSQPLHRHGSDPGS

| SMILES | IC50 (hERG (Kv11.1) [1]) [nM] | IC50 (hERG (Kv11.1) [2]) [nM] |
| --- | --- | --- |
| CC[C@H]1CN2CCc3c([nH]c4cccc(OC)c34)[C@@H]2C[C@@H]1/C(=C\OC)C(=O)OC [Speciogynine] | 1020 | – |
| CC[C@@H]1CN2CCc3c([nH]c4cccc(OC)c34)[C@@H]2C[C@@H]1/C(=C\OC)C(=O)OC [Mitragynine] | – | 910 |
| C=C[C@H]1CN2CCc3c([nH]c4cccc(OC)c34)[C@@H]2C[C@@H]1/C(=C\OC)C(=O)OC [Paynantheine] | 2470 | – |
| CC[C@@H]1CN2CCc3c([nH]c4cccc(OC)c34)[C@H]2C[C@@H]1/C(=C\OC)C(=O)OC [Speciociliatine] | 1480 | – |
